Like-named read-outs stand apart in the source and are kept apart here.
Columns and labels:
[1] = test system: HCV GT1b replicon; test: HCV replicon assay (Huh7 cells, luciferase reporter); assay type: cell-based, HCV genotype 1b
Text: An HCV replicon assay was used to determine the ability of anti-miR-122 compounds to inhibit the replication of HCV genotype 1b. In this assay, test compounds are introduced into Huh7 cells stably transfected with a HCV GT1b replicon containing a luciferase reporter gene. The luciferase reporter is used as an indirect measure of HCV replication. While a GalNAc-conjugated compound is expected to be preferable for treatment of HCV infection, due to the enhanced delivery to hepatocytes, some unconjugated compounds were tested.
Selected compounds were tested at nine concentrations ranging from 0.015 uM to 100 uM. GS-7977 (sofosbuvir) was included as a positive control. Cells were plated into 96-well plates at a density of 8,000 cells per well. Compound was added to the cells for a period of 72 hours. Luminescent signal in the supernatant was detected using the Bright-Glo reagent, and used to calculate the antiviral activity of each compound. The CellTiter-Fluor reagent was used to assess cell viability. The EC50 (concentration at which 50% inhibition was observed) was calculated.

[2] = test system: miR-122; test: In vivo potency: liver ALDOA mRNA derepression; details: single subcutaneous dose, liver after 7 days; for ALDOA derepression ED50 Expt #1: fold change in ALDOA mRNA relative to saline
Description: Inhibition of miR-122 leads to an increase in ALDOA expression, thus ALDOA mRNA levels can be used to measure miR-122 inhibitory activity in vivo.
(§1) Only GalNAc-conjugated compounds were tested in this assay. Compounds were administered at molar equivalents with regard to the anti-miR portion of the compound. A single, subcutaneous dose of RG-101 was administered subcutaneously at doses ranging from 0.004 to 1.116 umol/kg. Other compounds were administered in a single subcutaneous dose at doses ranging from 0.006 to 1.942 umol/kg. After 7 days the study was terminated. Liver tissue was collected for measurement of ALDOA mRNA and drug levels. Kidney tissue was collected for measurement of drug levels. Blood was collected for measurement of cholesterol.
ALDOA mRNA levels were measured, by quantitative PCR, in RNA isolated from liver. The fold change in ALDOA mRNA, relative to saline, was used to calculate an ED50 (umol/kg) for each compound (“ND” indicates “not determined), as shown in Table 4.

[3] = test system: cholesterol; test: In vivo potency: cholesterol reduction; details: single subcutaneous dose (doses in umol/kg), blood after 7 days
Description: as §1

[4] = molecular target: T1, MRP2 transporter (Homo sapiens, UniProt Q92887); test: In vitro MRP2 transporter assay (inside-out membrane vesicles, [3H]-estradiol-17β-glucuronide); assay type: in vitro ADME
T1 construct: expressed in transfected cells; host or cells: insect cells (transiently transfected); inside-out membrane vesicles
Description: To test the hypothesis that RG-101 was interfering with MRP2 transporter activity, an in vitro assay was performed per methods known in the art (see, for example, Vermeer et al., Drug Metab. Dispos., 2016, 44(3):453-9). In this assay, an efflux transporter-expressing vesicle is used to evaluate if a drug is a substrate or inhibitor of a transporter. Inside-out membrane vesicles are prepared from insect cells transiently transfected with a single efflux transporter, in this case MRP2. As the vesicles are in an inside-out orientation, the MRP2 transporter pumps radiolabeled substrate, [3H]-estradiol-17β-glucuronide, in an ATP-dependent manner, into the vesicles, and the accumulation of radiolabeled substrate inside the vesicle is measured. If a compound is an MRP2 transport inhibitor, the accumulation of radiolabeled substrate will be reduced relative to control samples. The inhibitory effect of the compound is evaluated by determining the IC50, the concentration resulting in 50% inhibition of transporter-mediated uptake of the radiolabeled substrate.
The in vitro MRP2 assay was performed for RG-101. Both RG-101, and RG1649, the unconjugated anti-miR of RG-101, were tested at concentrations of 0, 0.1, 0.3, 1, 3, 10, 30, and 100 uM. […] Thus, RG-101 inhibited the MPR2 transporter in this assay.
The MRP2 assay was performed for anti-miR-122 compounds selected based on potency in the HCV replicon assay and structural diversity.

[5] = test system: miR-122; test: Onset of action: liver ALDOA mRNA de-repression; assay type: in vivo, mice; details: 0.014 to 1.117 umol/kg; liver 1, 3, 7 or 14 days after administration; relative to RG2634
Description: To determine whether RG6650 and RG2634 could be distinguished by onset of action, groups of mice were treated with compound at doses ranging from 0.014 to 1.117 umol/kg. Liver tissue was collected from groups of 4 to 5 mice 1, 3, 7, or 14 days following administration. RNA was isolated and ALDOA mRNA was measured.

[6] = test system: HCV genotype 1a; test: Human chimeric liver mouse model of HCV infection, serum HCV RNA; assay type: in vivo, mice; details: RG6650 60 mg/kg, single administration
Text: Due to host-pathogen specificity, HCV can only infect humans and chimpanzees. As such, smaller species, such as mice, that are typically used for experimental in vivo studies cannot be infected with HCV for testing of candidate agents for the treatment of HCV infection. To address this problem, human liver chimeric mouse models may be utilized (see, e.g., Bissig et al., Proc Nat Acad Sci US A, 2007, 104:20507-20511; Bissig et al., J Clin Invest., 2010, 120: 924-930). In this model, the livers of immunodeficient mice are repopulated with human hepatocytes, resulting in a chimeric liver in which most of the hepatocytes are human hepatocytes. The mice are then infected with HCV and treated with anti-HCV agents. This mouse model is commercially available from, for example, PhoenixBio.
Anti-miR-122 compounds were tested in a human chimeric liver mouse model of HCV infection. The livers of immunodeficient mice were repopulated with human hepatocytes, resulting in a chimeric liver in which most of the hepatocytes are human hepatocytes. Six weeks following inoculation with HCV genotype 1a, a baseline viral titer was obtained for each animal included in the study.
Groups of four animals each were treated with PBS, RG-101 at a dose of 45 mg/kg, or RG6650 at a dose of 60 mg/kg. Blood was collected on Days 3, 7, 10, 14, 21, 28, 35, 42, and 49. The study was terminated on day 49.

[7] = test system: miR-122; test: Pharmacodynamic activity in liver after oral or s.c. administration (ALDOA); assay type: in vivo, mice; details: 30 mg/kg s.c. in PBS, single dose, four days later
Description: An experiment was performed to determine whether oral administration of RG6650 would results in pharmacodynamic modulation of miR-122 in liver. Also tested was RG7443, the unconjugated anti-miR of RG6650. While an unconjugated anti-miR-122 is not as effective as a GalNAc-conjugated for the inhibition of miR-122 in the treatment of HCV, it was included for comparison in the oral administration study.
(§2) Anti-miR compounds were delivered in PBS for subcutaneous administration. Orally administered anti-miR compounds were prepared in a solution of PBS and 0.3 M sodium bicarbonate (BC) was added to a pH of 9.5. For oral dosing, animals were fasted for 12 hours prior. For all treatment groups, mice were administered a single dose and sacrificed four days later. Liver tissue was collected for pharmacodynamic and pharmacokinetic analyses. RNA was isolated from liver and kidney. […] in the liver was measured.

[8] = test system: miR-122; test: Free uptake in primary human hepatocyte 3D spheroids, ALDOA by RT-PCR; assay type: cell-based
[9] = test system: IFIT; test: In vivo safety: liver expression of interferon-inducible gene IFIT
Description: The compounds that met the criteria for in vivo potency were also tested for safety. The capacity of a compound to trigger a pro-inflammatory response was assessed by measuring the expression of the interferon-inducible gene IFIT in the liver. Additionally, the level of ALT following administration of a compound was also measured.

[10] = test system: HCV; details: chronic treatment naïve HCV infected subjects; cited from earlier work
[11] = Anti-miR amounts in liver tissue after oral or s.c. administration; assay type: in vivo, mice; details: single dose, four days later
Description: as §2

[12] = 72 hours, Expt #1, read-out: EC50 uM Expt #1
[13] = MRP2 transporter assay, Expt #2, read-out: IC50 uM Expt #2

T1 sequence (Q92887 whole entry): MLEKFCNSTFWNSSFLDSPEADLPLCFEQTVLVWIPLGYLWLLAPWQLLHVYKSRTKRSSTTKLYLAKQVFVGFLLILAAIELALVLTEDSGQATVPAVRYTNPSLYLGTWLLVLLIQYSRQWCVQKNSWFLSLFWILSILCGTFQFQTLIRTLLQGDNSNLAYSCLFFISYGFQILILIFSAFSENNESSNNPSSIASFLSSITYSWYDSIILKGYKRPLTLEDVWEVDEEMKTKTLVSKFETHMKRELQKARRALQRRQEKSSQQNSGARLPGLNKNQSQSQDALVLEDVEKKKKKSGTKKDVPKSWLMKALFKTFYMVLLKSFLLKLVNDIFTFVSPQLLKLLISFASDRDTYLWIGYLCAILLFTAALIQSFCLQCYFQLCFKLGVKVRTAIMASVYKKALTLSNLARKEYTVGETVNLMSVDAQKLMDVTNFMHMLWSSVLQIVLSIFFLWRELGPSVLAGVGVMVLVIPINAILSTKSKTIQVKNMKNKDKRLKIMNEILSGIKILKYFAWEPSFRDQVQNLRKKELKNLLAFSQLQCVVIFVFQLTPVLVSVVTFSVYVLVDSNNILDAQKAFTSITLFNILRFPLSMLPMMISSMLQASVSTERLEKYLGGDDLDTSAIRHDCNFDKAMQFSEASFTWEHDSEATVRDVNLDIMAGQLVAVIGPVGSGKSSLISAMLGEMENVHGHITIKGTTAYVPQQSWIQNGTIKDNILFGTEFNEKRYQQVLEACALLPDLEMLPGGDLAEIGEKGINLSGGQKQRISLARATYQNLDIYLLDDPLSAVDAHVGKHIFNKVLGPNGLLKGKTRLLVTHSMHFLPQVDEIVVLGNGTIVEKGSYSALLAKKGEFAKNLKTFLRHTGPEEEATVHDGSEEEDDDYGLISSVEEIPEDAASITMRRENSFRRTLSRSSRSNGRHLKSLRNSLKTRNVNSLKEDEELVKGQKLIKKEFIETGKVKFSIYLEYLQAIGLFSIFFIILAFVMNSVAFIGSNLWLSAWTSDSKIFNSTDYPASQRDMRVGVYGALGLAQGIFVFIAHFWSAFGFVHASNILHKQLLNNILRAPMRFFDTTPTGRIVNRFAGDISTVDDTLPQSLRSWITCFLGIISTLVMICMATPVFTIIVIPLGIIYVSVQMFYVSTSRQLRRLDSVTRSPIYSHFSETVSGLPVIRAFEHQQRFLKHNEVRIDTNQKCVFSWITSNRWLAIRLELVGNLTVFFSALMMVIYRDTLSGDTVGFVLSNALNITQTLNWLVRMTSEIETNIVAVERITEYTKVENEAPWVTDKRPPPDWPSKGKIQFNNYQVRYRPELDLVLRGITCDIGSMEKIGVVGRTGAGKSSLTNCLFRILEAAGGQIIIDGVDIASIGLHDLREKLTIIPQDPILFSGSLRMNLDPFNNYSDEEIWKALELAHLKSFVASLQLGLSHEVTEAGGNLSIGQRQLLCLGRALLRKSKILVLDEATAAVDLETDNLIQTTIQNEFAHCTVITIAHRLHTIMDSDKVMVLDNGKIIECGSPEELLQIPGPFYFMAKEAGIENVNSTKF

Row | Compound | EC50 [1, 12] [µM] | ALDOA derepression ED50 Expt #1 [2] [µmol/kg] | Cholesterol reduction ED50 Expt #1 [3] | IC50 [4, 13] [µM] | other results
1 | USCSAS^POCS^POAS^POCS^POUSCSCS [RG6372] | > 100 | 0.028 | 0.8088 |  | 
2 | CSASCSASCSUSCSCS [RG2634] | 22.5 | 0.029 | 0.011 | > 100 | 
3 | USCSACSACSTCSCS [RG6650] |  |  |  |  | IC50 ([4]; MRP2 transporter assay, Expt #1, read-out: IC50 uM Expt #1): > 100 µM; IC50 ([4]; assay conducted multiple times, read-out: MRP2 IC50 range over multiple studies): > 100 µM; EC50 ([1]; 72 hours, Expt #2, read-out: EC50 uM Expt #2): 11.3 µM; ALDOA derepression ED50 Expt #2 ([2]; Expt #2): 0.091 µmol/kg; Cholesterol reduction ED50 Expt #2 ([3]; Expt #2): 0.025; Onset of action by ALDOA mRNA de-repression [5]: increased de-repression of ALDOA mRNA at a lower dose and earlier time point; Reduction in serum HCV RNA [6]: greater than 2 log; Viral titer, serum HCV RNA ([6]; RG-101 45 mg/kg, up to day 49, FIG. 1): significant reductions in viral titer; Liver PD Sig [7]: 1.704; EC50 ([8]; 3D PHH spheroids, three days treatment, read-out: EC50 (ALDOA levels)): 0.00207 µM; Decrease of EC50 by the GalNAc conjugate ([8]; RG6650 compared to RG7443): ~1000 fold
4 | CC(C)OC(=O)[C@H](C)N[P@](=O)(OC[C@H]1O[C@@H](n2ccc(=O)[nH]c2=O)[C@](C)(F)[C@@H]1O)Oc1ccccc1 [GS-7977, sofosbuvir, reference compound] |  |  |  |  | EC50 ([1]; Hepatitis C virus, GT1B, Huh-7, 72 hours, Expt #1, read-out: EC50 uM Expt #1): 0.149 µM; EC50 ([1]; Hepatitis C virus, GT1B, Huh-7, 72 hours, Expt #2, read-out: EC50 uM Expt #2): 0.098 µM
5 | CSASCS^POAS^POCS^POUS^POCSCSAS [RG6371] | 34.1 | 0.086 | 1.116 |  | 
6 | CsASCSASCSUSCSCSAS [RG6370] | 60.9 | 6.51 | 0.0007 | > 100 | Expression of IFIT in the liver (pro-inflammatory response) [9]: increased the expression of IFIT
7 | USCSASCSASCSUSCSCS [RG3054] | > 100 |  | .08152 | > 100 | Expression of IFIT in the liver (pro-inflammatory response) [9]: increased the expression of IFIT
8 | miravirsen |  |  |  |  | Serum HCV RNA [10]: reduction in serum HCV RNA
9 | CSASCSASCSUSCSCS [RG497998] | 7.71 |  |  |  | 
10 | CSASCSASCSUSCSCSAS [RG6234] | 17.4 |  |  | > 100 | 
11 | UsCsACsACsTCsCs [RG7443] |  |  |  |  | Liver PD Sig [7]: 1.945; Liver Mean (anti-miR amount) ([11]; 30 mg/kg s.c. in PBS): 1.48 µg/g; Liver Mean (anti-miR amount) ([11]; 100 mg/kg p.o. in BC): <0.4 µg/g

Reference: patent US12005120B2, “Galnac conjugated modified oligonucleotides as miR-122 inhibitor having HCV antiviral activity with reduced hyperbilirubinemia side-effect” (Regulus Therapeutics Inc., priority 2018, dated 2024)
